Laboratory results taken from patent US8173595B2, “Methods and compositions for the inhibition of thrombus formation” (The Board of Trustees of the University of Illinois, priority 2004, dated 2012).
Where no end group is shown, it is not given here. [ ]: non-standard residue; d: D form. The star is where a group is joined. Myristoyl = CCCCCCCCCCCCCC(=O)*; pS = N[C@@H](COP(=O)(O)O)C(=O)O

What was measured:
[1] = tested on: platelets (platelet-rich plasma from healthy donors); assay: Ristocetin-induced (vWF-dependent) platelet aggregation in platelet-rich plasma; type: cell-based, human
Description: (§1) Platelet preparation and aggregation. Blood was drawn from healthy donors, and was anti-coagulated with 1/10 volume of 3.8% trisodium citrate. Platelet-rich plasma (PRP) was obtained by centrifugation at 300×g for 20 min at 22° C. Platelet aggregation was measured using a turbidometric platelet aggregometer at 37° C. with a stirring speed at 1000 rpm. To examine the effects of peptides, various concentrations of each peptide was preincubated with platelets at 22° C. for 5 min. In some experiments, intergrin inhibitor RGDS (1 mM) was also added to exclude the roles of β3 integrins.

[2] = target: T1, 14-3-3 binding to GPIb-IX (Homo sapiens, UniProt P63104); assay: Binding of GPIb-IX from platelet lysates to 14-3-3-conjugated beads (Western blot); conditions: recombinant 14-3-3-MBP beads, FIG. 1B
T1 construct: GPIb-IX: platelet lysate
T1 sequence (P63104 1-245): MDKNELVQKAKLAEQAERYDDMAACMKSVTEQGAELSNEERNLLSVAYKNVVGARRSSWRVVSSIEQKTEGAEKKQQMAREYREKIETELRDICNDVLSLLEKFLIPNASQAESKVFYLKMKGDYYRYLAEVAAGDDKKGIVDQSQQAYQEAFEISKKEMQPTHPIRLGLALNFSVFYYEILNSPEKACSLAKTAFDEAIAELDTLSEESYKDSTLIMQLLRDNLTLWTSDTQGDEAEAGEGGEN
Description: 14-3-3 binding to GPIb-IX. Binding of GPIb-IX to 14-3-3-conjugated beads were performed as previously described (Du et al., J. Biol. Chem., 271:7362-7367 (1996)). Briefly, 14-3-3-conjugated Sepharose 4B beads and maltose-binding protein (MBP)-conjugated control beads were preincubated with various concentrations of synthetic peptides at 4° C. for 1 h, and then with platelet lysates for an additional 1 h. The beads were washed three times. Bound GPIb-IX was detected by Western blot with a monoclonal antibody against GPIbα, WM23.

[3] = tested on: GPIb-IX-dependent platelet agglutination; assay: Ristocetin-induced GPIb-IX-specific platelet agglutination in the presence of RGDS; type: cell-based, human; conditions: PRP, in the presence of 1 mM RGDS, ristocetin 1.25 mg/ml, FIG. 2A, 2B
Description: as §1

platelets = assay: Botrocetin-induced platelet agglutination; type: cell-based
[4] = tested on: platelets (platelet-rich plasma); assay: Platelet aggregation induced by ADP, collagen or thromboxane A2 analog U46619; type: cell-based, human; conditions: collagen, thromboxane A2 analog U46619, FIGS. 2C, 2D, 2E
Description: as §1

[5] = tested on: vWF binding to GPIb-IX on washed human platelets; assay: Flow cytometry analysis of ristocetin-induced vWF binding to platelets; type: cell-based; conditions: 10 mM EDTA or RGDS, ristocetin 1 mg/ml, FIG. 3
Description: Flow cytometry analysis of VWF binding to platelets. Flow cytometry analysis of vWF binding to platelets has been described previously 8,9. Washed platelets (1.0×10^7/ml) were prepared as described previously (Englund et al., J. Biol. Chem., 276:16952-16959 (2001); Bodnar et al., J. Biol. Chem. 277:47080-47087 (2002)), and resuspended in phosphate-buffered saline (PBS) solution (0.01 M NaH2PO4, 0.15 M NaCl, pH 7.4) containing 10 mM EDTA and 1% BSA. Platelets were preincubated with various concentrations of synthetic peptides at 22° C. for 10 min before incubating with purified vWF (35 μg/ml) and ristocetin (1.0 mg/ml) at 22° C. for 30 min. Platelets were washed once, further incubated in the same buffer containing 10 μg/ml FITC-labeled SZ-29 in the dark at 22° C. for 30 min and then analyzed by flow cytometry. As negative controls, platelets were incubated in the presence of ristocetin alone then incubated with FITC-labeled SZ29.

platelet adhesion to vWF = assay: Platelet adhesion under flow in vWF-coated glass capillaries; type: cell-based; conditions: washed platelets, in the presence of RGDS, FIG. 4A
Description: Platelet adhesion under flow. Washed platelets (3×10^8/ml) were preincubated with various concentrations of synthetic peptides at 22° C. for 10 min, the platelets were perfused into the vWF-coated glass capillaries using a PhD syringe pump (Harvard Apparatus Inc.) at various shear rates for 8 min. Transient adhesion of platelets on the vWF-coated surface was recorded on video cassette recorder. Adherent platelets were counted in 10 randomly selected fields of 0.25 mm^2 within a 10 second time period.

Tail-bleeding time = type: in vivo, C57 black mice; conditions: infused into jugular vein, 5 min circulation, compared with MαC or MαCsc, p<0.0001, FIG. 4B
Description: Tail-bleeding time. Bleeding times were performed with 6-8-wk-old adult C57 black mice anesthetized with an intraperitoneal injection of avertin. The internal jugular vein was surgically exposed, and a total volume of 50 μl of a peptide (5 mM) was infused using a 27 G needle. Experiments were performed in a double-blinded fashion. After 5 min, tails were amputated 5 mm from the tail tip, and immersed in a tube containing 0.15M NaCl maintained at 37° C. Bleeding was visually followed and timed. Maximum bleeding time allowed was 10 min after which the tail was cauterized. Statistical differences between the groups were examined using Mann-Whitney test and InStat software.

CCCCCCCCCCCCCC(=O)OC(=O)CCCCCCCCCCCCC [myristic anhydride (MA), myristic anhydride]
ristocetin-induced platelet aggregation ([1]; PRP, 100 μM, FIG. 1D, 1E): no effect

C13H27CONH-LSISYGSHR (Myristoyl-LSISYGSHR) [MαCsc, myristoylated scrambled control peptide]
binding of GPIb-IX to 14-3-3 beads [2]: not | ristocetin-induced platelet aggregation ([1]; PRP, 100 μM, FIG. 1D, 1E): no significant effect

C13H27CONH-SIRYSGHDL (Myristoyl-SIRYSGHDL) [MSDαC, myristoylated peptide replacing phosphorylated serine 609 with aspartic acid to simulate phosphoserine]
ristocetin-induced platelet aggregation ([1]; PRP preincubated at room temperature for 5 min, FIG. 5): completely inhibited

C13H27CONH-SIRYSGHSL (Myristoyl-SIRYSGHSL) [MαC]
binding of GPIb-IX to 14-3-3 beads [2]: not | ristocetin-induced platelet aggregation ([1]; PRP, 100 μM, FIG. 1D, 1E): no significant effect

C13H27CONH-SIRYSGHpSL (Myristoyl-SIRYSGH[pS]L) [MPαC]
binding of GPIb-IX to 14-3-3 beads [2]: abolished | vWF-dependent platelet aggregation induced by ristocetin ([1]; PRP preincubated with increasing concentrations of peptide, FIG. 1C): dose-dependently inhibited | ristocetin-induced platelet agglutination [3]: completely inhibited | botrocetin-induced platelet agglutination (platelets): inhibited | platelet aggregation induced by platelet agonists [4]: no inhibitory effect | ristocetin-induced vWF binding to platelets [5]: inhibited | adhesion of platelets on vWF surface under flow (platelet adhesion to vWF): almost no adhesion | median tail bleeding time (Tail-bleeding time): significantly prolonged

SIRYSGHpSL [PαC]
ristocetin-induced platelet aggregation ([1]; PRP, 100 μM, FIG. 1D, 1E): no effect
